{"source": "patent US6376497B1", "about": "“Antifungal azole derivatives having a fluorinated vinyl group and process for preparing same” (Korea Research Institute of Chemical Technology, priority 1999, dated 2002)", "assay_in_all_cases": "In vitro antifungal activity, microbroth dilution MIC", "format_in_all_cases": "cell-based", "key": {"[1]": {"test_system": "Trichophyton mentagrophytes A. 9129", "conditions": "4 to 48 hours; for Minimal inhibitory concentration(MIC), T. mentagrophytes A. 9129: RPMI-1640, 35° C., no growth observed", "experimental": "(§1) In vitro antifungal activities of the inventive antifungal compounds were evaluated using the test strains shown in Table VIII by the following microbroth dilution method which is a modified version of the procedure recommended by National Committee for Clinical Laboratory Standards(see National Committee for Clinical Laboratory Standards, 1992, Reference methods for broth dilution antifungal susceptibility testing of yeasts, Proposed standard M27-P, National Committee for clinical laboratory standards, Villanova, Pa; and National Committee for Clinical Laboratory Standards, 1995, Reference methods for broth dilution antifungal susceptibility testing of yeasts. Tentative standard M27-T, National Committee for clinical laboratory standards, Villanova, Pa).\n(§2) Sabourad Dextrose Agar(Difco) was used as a culture medium, and RPMI-1640 broth(Sigma. Co. w/L-glutamine, wo/NaHCO3)(0.165 M MOPS, pH 7.0), as a dilution medium.\n(§3) Each of the test strains were subcultured in Sabourad Dextrose Agar medium twice and a stain sample was taken from prominent colonies and suspended in sterile physiological saline solution in a cap tube. The turbidity of the suspension was adjusted to that of the Mcfarland 0.5 standard sample(approximately 10^6 CFU/ml). Then the suspension was diluted 500-fold with sterile RPMI-1640 liquid medium to 2×10^3 CFU/ml.\n(§4) Each of the test compounds(the compounds obtained in Examples 1 to 150 and comparative compounds, i.e., fluconazole(FCZ) and itraconazole (ICZ)), was dissolved in DMSO to give a stock solution having a concentration of 4000 μg/ml and the stock solution was successively diluted to obtain test solutions having test compound concentrations of 200, 100, 50, 25, 12.5, 6.25, 3.13, 1.56, 0.78, 0.39, 0.20 and 0.10 μg/ml, respectively.\n(§5) 0.1 ml portion of the test solutions were added to the wells of a sterile 96 well plate. Then, 0.1 ml portion of each of the test strain solutions were added successively to the wells and the plate was incubated at 35° C. for 4 to 48 hours.\n(§6) Minimal inhibitory concentration(MIC) of each compound was defined as the concentration of the test compound where no growth of the strain could be observed."}, "[2]": {"test_system": "Cryptococcus neoformans A. 34144", "conditions": "4 to 48 hours; for Minimal inhibitory concentration(MIC), Cry. neoformans A. 34144: RPMI-1640, 35° C., no growth observed", "experimental": "as §1, §2, §3, §4, §5, §6"}, "[3]": {"test_system": "Candida parapsitosis A. 7330", "conditions": "4 to 48 hours; for Minimal inhibitory concentration(MIC), C. parapsitosis A. 7330: RPMI-1640, 35° C., no growth observed", "experimental": "as §1, §2, §3, §4, §5, §6"}, "[4]": {"test_system": "Trichophyton mentagrophytes B. 32663", "conditions": "4 to 48 hours; for Minimal inhibitory concentration(MIC), T. mentagrophytes B. 32663: RPMI-1640, 35° C., no growth observed", "experimental": "as §1, §2, §3, §4, §5, §6"}, "[5]": {"test_system": "Candida pseudotropicalis K. 11658", "conditions": "4 to 48 hours; for Minimal inhibitory concentration(MIC), C. pseudotropicalis K. 11658: RPMI-1640, 35° C., no growth observed", "experimental": "as §1, §2, §3, §4, §5, §6"}, "[6]": {"test_system": "Candida tropicalis A. 13803", "conditions": "4 to 48 hours; for Minimal inhibitory concentration(MIC), C. tropicalis A. 13803: RPMI-1640, 35° C., no growth observed", "experimental": "as §1, §2, §3, §4, §5, §6"}, "[7]": {"test_system": "Cryptococcus neoformans IFM. 40092", "conditions": "4 to 48 hours; for Minimal inhibitory concentration(MIC), Cry. neoformans IFM. 40092: RPMI-1640, 35° C., no growth observed", "experimental": "as §1, §2, §3, §4, §5, §6"}, "Candida albicans C1-2": {"test_system": "Candida albicans C1-2", "conditions": "4 to 48 hours; for Minimal inhibitory concentration (MIC): C. albicans C1-2, RPMI-1640, 35° C.", "experimental": "as §1, §2, §3, §4, §5, §6"}, "[8]": {"test_system": "Aspergillus niger A. 16404", "conditions": "4 to 48 hours; for Minimal inhibitory concentration(MIC), A. niger A. 16404: RPMI-1640, 35° C., no growth observed", "experimental": "as §1, §2, §3, §4, §5, §6"}, "[9]": {"test_system": "Candida albicans IFO. 1385", "conditions": "4 to 48 hours; for Minimal inhibitory concentration(MIC), C. albicans IFO. 1385: RPMI-1640, 35° C., no growth observed", "experimental": "as §1, §2, §3, §4, §5, §6"}, "[10]": {"test_system": "Candida albicans A. 10231", "conditions": "4 to 48 hours; for Minimal inhibitory concentration (MIC): C. albicans A. 10231, RPMI-1640, 35° C.", "experimental": "as §1, §2, §3, §4, §5, §6"}, "[11]": {"test_system": "Aspergillus furnigatus B. 19119", "conditions": "4 to 48 hours; for Minimal inhibitory concentration(MIC), A furnigatus B. 19119: RPMI-1640, 35° C., no growth observed", "experimental": "as §1, §2, §3, §4, §5, §6"}, "Candida krusei K. 11655": {"test_system": "Candida krusei K. 11655", "conditions": "4 to 48 hours; for Minimal inhibitory concentration(MIC), C. krusei K. 11655: RPMI-1640, 35° C., no growth observed", "experimental": "as §1, §2, §3, §4, §5, §6"}, "[12]": {"test_system": "Cryptococcus neoformans B. 42419", "conditions": "4 to 48 hours; for Minimal inhibitory concentration(MIC), Cry. neoformans B. 42419: RPMI-1640, 35° C., no growth observed", "experimental": "as §1, §2, §3, §4, §5, §6"}, "[13]": {"test_system": "Torulopsis glabrata B. 16205", "conditions": "4 to 48 hours; for Minimal inhibitory concentration(MIC), T. glabrata B. 16205: RPMI-1640, 35° C., no growth observed", "experimental": "as §1, §2, §3, §4, §5, §6"}, "[14]": {"conditions": "RPMI-1640, 35° C., no growth observed"}}, "data": [{"smiles": "FC(OCC1COC(Cn2ccnc2)(c2ccc(F)cc2F)O1)=C(c1cccs1)C(F)(F)F", "note": "(mixture of isomers) [Ex. 68]", "values": [{"measurement": "Minimal inhibitory concentration (MIC)", "setting": "[1]; T. mentagrophytes A. 9129, RPMI-1640, 35° C.", "value": 1.56, "unit": "µg/mL"}, {"measurement": "Minimal inhibitory concentration (MIC)", "setting": "[2]; Cry. neoformans A. 34144, RPMI-1640, 35° C.", "value": 1.56, "unit": "µg/mL"}, {"measurement": "Minimal inhibitory concentration (MIC)", "setting": "[3]; C. parapsitosis A. 7330, RPMI-1640, 35° C.", "value": ">100", "unit": "µg/mL"}, {"measurement": "Minimal inhibitory concentration (MIC)", "setting": "[4]; T. mentagrophytes B. 32663, RPMI-1640, 35° C.", "value": 1.56, "unit": "µg/mL"}, {"measurement": "Minimal inhibitory concentration (MIC)", "setting": "[5]; C. pseudotropicalis K. 11658, RPMI-1640, 35° C.", "value": 25.0, "unit": "µg/mL"}, {"measurement": "Minimal inhibitory concentration (MIC)", "setting": "[6]; C. tropicalis A. 13803, RPMI-1640, 35° C.", "value": 50.0, "unit": "µg/mL"}, {"measurement": "Minimal inhibitory concentration (MIC)", "setting": "[7]; Cry. neoformans IFM. 40092, RPMI-1640, 35° C.", "value": "≦0.10 μg/ml"}, {"measurement": "Minimal inhibitory concentration (MIC)", "setting": "Candida albicans C1-2", "value": 12.5, "unit": "µg/mL"}, {"measurement": "Minimal inhibitory concentration (MIC)", "setting": "[8]; A. niger A. 16404, RPMI-1640, 35° C.", "value": 12.5, "unit": "µg/mL"}, {"measurement": "Minimal inhibitory concentration (MIC)", "setting": "[9]; C. albicans IFO. 1385, RPMI-1640, 35° C.", "value": 0.78, "unit": "µg/mL"}, {"measurement": "Minimal inhibitory concentration (MIC)", "setting": "[10]", "value": 6.25, "unit": "µg/mL"}, {"measurement": "Minimal inhibitory concentration (MIC)", "setting": "[11]; A furnigatus B. 19119, RPMI-1640, 35° C.", "value": 1.56, "unit": "µg/mL"}, {"measurement": "Minimal inhibitory concentration (MIC)", "setting": "Candida krusei K. 11655; C. krusei K. 11655, RPMI-1640, 35° C.", "value": 50.0, "unit": "µg/mL"}, {"measurement": "Minimal inhibitory concentration (MIC)", "setting": "[12]; Cry. neoformans B. 42419, RPMI-1640, 35° C.", "value": 0.78, "unit": "µg/mL"}, {"measurement": "Minimal inhibitory concentration (MIC)", "setting": "[13]; T. glabrata B. 16205, RPMI-1640, 35° C.", "value": 3.13, "unit": "µg/mL"}]}, {"smiles": "Cc1ccc(C=C(F)Oc2ccc(OCC3COC(Cn4ccnc4)(c4ccc(Cl)cc4Cl)O3)cc2)cc1", "note": "(mixture of isomers) [Ex. 89]", "values": [{"measurement": "Minimal inhibitory concentration(MIC), T. mentagrophytes A. 9129", "setting": "[1]", "value": 6.25, "unit": "µg/mL"}, {"measurement": "Minimal inhibitory concentration(MIC), Cry. neoformans A. 34144", "setting": "[2]", "value": 3.13, "unit": "µg/mL"}, {"measurement": "Minimal inhibitory concentration(MIC), C. parapsitosis A. 7330", "setting": "[3]", "value": 12.5, "unit": "µg/mL"}, {"measurement": "Minimal inhibitory concentration(MIC), T. mentagrophytes B. 32663", "setting": "[4]", "value": 6.25, "unit": "µg/mL"}, {"measurement": "Minimal inhibitory concentration(MIC), C. pseudotropicalis K. 11658", "setting": "[5]", "value": 6.25, "unit": "µg/mL"}, {"measurement": "Minimal inhibitory concentration(MIC), C. tropicalis A. 13803", "setting": "[6]", "value": 100, "unit": "µg/mL"}, {"measurement": "Minimal inhibitory concentration(MIC), Cry. neoformans IFM. 40092", "setting": "[7]", "value": 0.78, "unit": "µg/mL"}, {"measurement": "Minimal inhibitory concentration(MIC), C. albicans C1-2", "setting": "Candida albicans C1-2; [14]", "value": 100, "unit": "µg/mL"}, {"measurement": "Minimal inhibitory concentration(MIC), A. niger A. 16404", "setting": "[8]", "value": ">100", "unit": "µg/mL"}, {"measurement": "Minimal inhibitory concentration(MIC), C. albicans IFO. 1385", "setting": "[9]", "value": 25.0, "unit": "µg/mL"}, {"measurement": "Minimal inhibitory concentration(MIC), C. albicans A. 10231", "setting": "[10]; [14]", "value": 100, "unit": "µg/mL"}, {"measurement": "Minimal inhibitory concentration(MIC), A furnigatus B. 19119", "setting": "[11]", "value": 100, "unit": "µg/mL"}, {"measurement": "Minimal inhibitory concentration(MIC), C. krusei K. 11655", "setting": "Candida krusei K. 11655", "value": 12.5, "unit": "µg/mL"}, {"measurement": "Minimal inhibitory concentration(MIC), Cry. neoformans B. 42419", "setting": "[12]", "value": 1.56, "unit": "µg/mL"}, {"measurement": "Minimal inhibitory concentration(MIC), T. glabrata B. 16205", "setting": "[13]", "value": 50.0, "unit": "µg/mL"}]}, {"smiles": "Cc1cccc(C(=C(F)OCC2COC(Cn3cncn3)(c3ccc(Cl)cc3Cl)O2)C(F)(F)F)c1", "note": "(mixture of isomers) [Ex. 80]", "values": [{"measurement": "Minimal inhibitory concentration(MIC), T. mentagrophytes A. 9129", "setting": "[1]", "value": 100, "unit": "µg/mL"}, {"measurement": "Minimal inhibitory concentration(MIC), Cry. neoformans A. 34144", "setting": "[2]", "value": 1.56, "unit": "µg/mL"}, {"measurement": "Minimal inhibitory concentration(MIC), C. parapsitosis A. 7330", "setting": "[3]", "value": ">100", "unit": "µg/mL"}, {"measurement": "Minimal inhibitory concentration(MIC), T. mentagrophytes B. 32663", "setting": "[4]", "value": 100, "unit": "µg/mL"}, {"measurement": "Minimal inhibitory concentration(MIC), C. pseudotropicalis K. 11658", "setting": "[5]", "value": ">100", "unit": "µg/mL"}, {"measurement": "Minimal inhibitory concentration(MIC), C. tropicalis A. 13803", "setting": "[6]", "value": ">100", "unit": "µg/mL"}, {"measurement": "Minimal inhibitory concentration(MIC), Cry. neoformans IFM. 40092", "setting": "[7]", "value": 0.78, "unit": "µg/mL"}, {"measurement": "Minimal inhibitory concentration (MIC)", "setting": "Candida albicans C1-2", "value": ">100", "unit": "µg/mL"}, {"measurement": "Minimal inhibitory concentration(MIC), A. niger A. 16404", "setting": "[8]", "value": ">100", "unit": "µg/mL"}, {"measurement": "Minimal inhibitory concentration(MIC), C. albicans IFO. 1385", "setting": "[9]", "value": 12.5, "unit": "µg/mL"}, {"measurement": "Minimal inhibitory concentration (MIC)", "setting": "[10]", "value": ">100", "unit": "µg/mL"}, {"measurement": "Minimal inhibitory concentration(MIC), A furnigatus B. 19119", "setting": "[11]", "value": ">100", "unit": "µg/mL"}, {"measurement": "Minimal inhibitory concentration(MIC), C. krusei K. 11655", "setting": "Candida krusei K. 11655", "value": ">100", "unit": "µg/mL"}, {"measurement": "Minimal inhibitory concentration(MIC), Cry. neoformans B. 42419", "setting": "[12]", "value": 1.56, "unit": "µg/mL"}, {"measurement": "Minimal inhibitory concentration(MIC), T. glabrata B. 16205", "setting": "[13]", "value": ">100", "unit": "µg/mL"}]}]}
